# Measured values published in US20240299421A1, “CANNABIDIOL COMPOSITIONS AND USES THEREOF” (PHARMOTECH SA, priority 2020, published 2024).
# Entries after “also recorded” stand apart in the source; their conditions may differ.
# Columns and labels:
# [1] = LC-MS/MS CBD dosing in blood/plasma after topical application; type: in vivo, Equus caballus (horse) and Equus ferus caballus (poney)
# IBH horse skin lesions = experiment: Topical CBD oil formulation on skin lesions of horses diagnosed with IBH (pruritus score, IBH lesion score); type: in vivo, Equus caballus (horse) and Equus ferus caballus (poney); conditions: 1% (w/w) CBD in sesame oil, topical once daily, 4 weeks
# Method: (§1) The application was made by hand (using a cotton) and a glove was used for massaging the product into the affected skin area. Each horse received at minimum 1 bottle of 100 ml on Day 1 and 1 Bottle on Day 14, administration was indicated to be daily. Larger volumes have been used for larger lesions.
# (§2) Safety parameters were measured by hematology measures and serum amyloid A (SSA) measures and IBH lesion score was calculated as detailed in Fettelschoss-Gabriel et al., 2018, J Allergy Clin Immunol 142(4): 1194-1205 at the beginning and at the end of the study as a disease specific observation. […] Pruritus was scored from 1-5 for each skin area affected and was calculated taking into account 3 main factors: tail scratching; mane scratching and belly scratching on ground/floor. SUM Score Pruritus-Day 1: 6 Pruritus score was calculated for Day 1, Day 14, Day 28
# Then, the mean was calculated. Main pruritus signs are: tail scratching, mane scratching, face scratching and sometimes rolling on the ground for belly scratching.
# CB2 receptors = CB2 receptors (Homo sapiens, UniProt P34972); conditions: compared with THC; cited from earlier work
# [2] = Safety parameters by hematology measures; type: in vivo, Equus caballus (horse) and Equus ferus caballus (poney); conditions: 1% (w/w) CBD topical, 4 weeks
# Method: as §1, §2
# Sequence of CB2 receptors (P34972 whole entry): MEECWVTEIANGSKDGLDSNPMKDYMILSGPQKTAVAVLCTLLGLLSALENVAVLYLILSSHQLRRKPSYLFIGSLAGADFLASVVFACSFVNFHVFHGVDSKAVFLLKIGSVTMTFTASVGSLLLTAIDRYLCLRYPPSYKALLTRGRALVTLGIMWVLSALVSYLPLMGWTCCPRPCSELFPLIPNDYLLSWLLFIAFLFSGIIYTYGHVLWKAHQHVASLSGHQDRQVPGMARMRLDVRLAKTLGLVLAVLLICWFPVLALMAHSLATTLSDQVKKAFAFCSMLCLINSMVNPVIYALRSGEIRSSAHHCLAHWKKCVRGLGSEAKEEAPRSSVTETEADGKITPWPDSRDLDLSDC
compound,measurement,setting,value
"C=C(C)[C@@H]1CCC(C)=C[C@H]1c1c(O)cc(CCCCC)cc1O [CBD, 2-[(1R,6R)-6-isopropenyl-3-methylcyclohex-2-en-1-yl]-5-pentylbenzene-1,3-diol]",CBD concentration in plasma,"[1]; 1% topical concentration, LC-MS/MS",not found in detectable concentrations
same,systemic absorption,[1]; at 1% topical concentration,negligible
same,IBH symptoms during treatment (IBH lesion score),IBH horse skin lesions; 11 animals with mild to moderate IBH,clear decrease
same,pruritus symptoms during treatment (pruritus score),"IBH horse skin lesions; score Day 1, Day 14, Day 28",reduce pruritus score; also recorded: clear decrease
same,affinity for CB2 receptors,CB2 receptors,very low affinity
same,WBC count,[2],No particular trend
same,eosinophile count,[2],No particular trend
